Assay results as given in patent US9394295B2, “Antibacterial homopiperidinyl substituted 3,4-dihydro-1H-[1,8]naphthyridinones” (Janssen Sciences Ireland UC, priority 2011, dated 2016).
In brackets after ≈: the same amount, converted by molar mass. Read-outs that look alike come from different tables or passages of the source.

Tests used:
[1] = tested on: Staphylococcus aureus ATCC 29213; assay: Antibacterial susceptibility testing: IC90 determination (STA); format: cell-based; details: ATCC29213, S. aureus ATCC 29213, 90% inhibitory concentration for bacterial growth, read-out: STA (361.159) IC90
Protocol: (§1) The following bacteria were used: Staphylococcus aureus ATCC 29213, methicillin-resistant Staphylococcus aureus (MRSA) ATCC 700788 and Escherichia coli ATCC 35218. The bacteria used in this study were grown overnight in flasks containing 100 ml Mueller-Hinton broth (Difco cat. nr. 0757-17) in sterile de-ionized water, with shaking, at 37° C. Stocks were store at −70° C. until use.
(§2) Bacteria were incubated on a tryptic soy agar plate containing 5% sheep blood (Becton Dickinson cat. nr. 254053) for 18-24 hours at 35° C. in aerobic conditions (first passage). For the second passage, fresh Mueller-Hinton broth is inoculated with 5-10 colonies and grown overnight at 35° C. until turbidity (reaching log-phase) in aerobic conditions is reached. The bacterial suspension is then adjusted to 0.5 McFarland density and further diluted 1:100 in Mueller Hinton broth medium. This is used as inoculum.
(§3) MIC assays were performed by the broth microdilution method in a 96-well format (flat-bottom microtitre plates) with a final volume of 0.1 ml Mueller Hinton broth containing two-fold serial dilutions of compounds and inoculated with 5×10^5 CFU/ml of bacteria (standard inoculum size according to CLSI guidelines). Inhibitors are typically varied over the range of 63 to 0.49 μM. The final DMSO concentration in the assay was 1.25% (maximum tolerable DMSO concentration=6%). In the assays where the effect of human serum on the activity of the compounds against S. aureus was tested, human serum was added at a final concentration of 10%. The plates were incubated at 35° C. for 16-20 hours. At the end of incubation the bacterial growth was quantified fluorometrically. For this, resazurin was added to all wells and the plates were re-incubated. The incubation time is dependent on the type of bacteria. A change in color from blue to pink indicated the growth of bacteria. The fluorescence was read in computer-controlled fluorometer (Fluoroskan Ascent FL, Labsystems) at an excitation wavelength 540 nm and an emission wavelength of 590 nm. The % growth inhibition achieved by the compounds was calculated according to standard methods. The IC90 (expressed in μg/ml) was defined as the 90% inhibitory concentration for bacterial growth. A panel of reference compounds were simultaneously tested for QC approval.

[2] = tested on: S. aureus; assay: Antibacterial susceptibility testing: IC90 determination with 10% human serum (STA + 10% HS); format: cell-based; details: Staphylococcus aureus; S. aureus with human serum at final concentration of 10%; read-out: STA + 10% HS (361.169) IC90
Protocol: as §1, §2, §3
The results are depicted in the table D2 below (STA+10% HS).

[3] = Thermodynamic solubility / solubility in aqueous solution; format: physicochemical; details: thermodynamic from solid, 4 days at ambient temperature
Protocol: The pH solubility profiling was carried out at ambient temperature for a period of 4 days. A saturation solubility study was carried out in order to determine maximum solubility in a particular buffer solution. The compound was added to respective buffer solution until saturation point is reached. This was followed by shaking the flask for 4 days at ambient temperature. After 4 days, the solutions were filtered and injected on UPLC and the concentration was determined using a generic HPLC method.

[4] = tested on: S. aureus ATCC 29213; assay: MIC broth microdilution (CLSI), S. aureus ATCC 29213; format: cell-based; details: Staphylococcus aureus, ATCC 29213 / MSSA, reference strain MSSA
Protocol: (§4) Minimum Inhibitory Concentrations (MICs) were determined in accordance with the Clinical and Laboratory Standards Institute (CLSI) methodology against aerobic bacteria (CLSI M07-A8) (see Clinical and Laboratory Standards Institute. 2009. Methods for dilution antimicrobial susceptibility tests for bacteria that grow aerobically. CLSI document M07-A8, Vol. 29, No. 2.) by the broth microdilution method with cation-adjusted Mueller-Hinton broth (CA-MHB) medium for the majority of organisms, except for Haemophilus influenza, where Haemophilis test medium (HTM) broth was used. Descriptions of the individual organisms can be found in the table. Where possible, ATCC standard strains were tested.
(§5) The inoculum density for the susceptibility testing was standardized to give a final inoculum of approximately 5×10^5 CFU/mL.
(§6) Stock solutions of the compounds were prepared in DMSO at concentrations of 1 mg/mL. Linezolid was prepared in DMSO at a concentration of 2 mg/mL. Stock solutions of all compounds were diluted into CA-MHB to give a range of two-fold dilutions, depending upon the sensitivity of the organism being tested.

[5] = tested on: S. aureus ATCC 43300; assay: MIC broth microdilution (CLSI), S. aureus ATCC 43300; format: cell-based; details: Staphylococcus aureus, ATCC 43300 / MRSA, reference strain MRSA
Protocol: as §4, §5, §6

[6] = tested on: S. aureus NRS119; assay: MIC broth microdilution (CLSI), S. aureus NRS119; format: cell-based; details: Staphylococcus aureus, LZD-R
Protocol: as §4, §5, §6

[7] = tested on: S. aureus NRS120; assay: MIC broth microdilution (CLSI), S. aureus NRS120; format: cell-based; details: Staphylococcus aureus, LZD-R
Protocol: as §4, §5, §6

[8] = tested on: S. aureus NRS121; assay: MIC broth microdilution (CLSI), S. aureus NRS121; format: cell-based; details: Staphylococcus aureus, LZD-R
Protocol: as §4, §5, §6

[9] = tested on: E. coli tolC mutant; assay: MIC broth microdilution (CLSI), E. coli tolC mutant; format: cell-based; details: Escherichia coli
Protocol: as §4, §5, §6

[10] = tested on: E. coli ATCC 25922; assay: MIC broth microdilution (CLSI), E. coli ATCC 25922; format: cell-based; details: Escherichia coli, ATCC25922
Protocol: as §4, §5, §6

[11] = aqueous buffer, Buffer pH 2, read-out: Solubility, Buffer pH 2
[12] = aqueous buffer, Buffer pH 4, read-out: Solubility, Buffer pH 4
[13] = aqueous buffer, Buffer pH 7.4, read-out: Solubility, Buffer pH 7.4
[14] = aqueous with cosolvent or surfactant or cyclodextrin, 10% HP-β-CD buffer pH 4, read-out: Solubility, 10% HP-β-CD buffer pH 4
[15] = aqueous with cosolvent or surfactant or cyclodextrin, 10% HP-β-CD buffer pH 7.4, read-out: Solubility, 10% HP-β-CD buffer pH 7.4
[16] = aqueous with cosolvent or surfactant or cyclodextrin, 20% HP-β-CD buffer pH 4, read-out: Solubility, 20% HP-β-CD buffer pH 4
[17] = aqueous with cosolvent or surfactant or cyclodextrin, 20% HP-β-CD buffer pH 7.4, read-out: Solubility, 20% HP-β-CD buffer pH 7.4

SMILES | IC90 [1] [µg/mL] | IC90 [2] [µg/mL] | solubility at 4 days [3, 11] [µg/mL] | solubility at 4 days [3, 12] [µg/mL] | solubility at 4 days [3, 13] [µg/mL] | solubility at 4 days [3, 14] [µg/mL] | solubility at 4 days [3, 15] [µg/mL] | solubility at 4 days [3, 16] [µg/mL] | solubility at 4 days [3, 17] [µg/mL] | MIC90 [4] [µg/mL] | MIC90 [5] [µg/mL] | MIC90 [6] [µg/mL] | MIC90 [7] [µg/mL] | MIC90 [8] [µg/mL] | MIC90 [9] [µg/mL] | MIC90 [10] [µg/mL]
O=C1CCc2cc(/C=C/C(=O)N3CCC=C(c4ccccc4)CC3)cnc2N1 [Co. No. 2] | 0.14 (≈ 0.375 µM) | 0.33 | 2 (≈ 5.36 µM) | < 2 | 3 (≈ 8.03 µM) | 1150 (≈ 3080 µM) | 1080 (≈ 2900 µM) | 980 (≈ 2620 µM) | 1050 (≈ 2820 µM) | 0.06 (≈ 0.161 µM) | 0.06 (≈ 0.161 µM) | 0.125 (≈ 0.335 µM) | 0.06 (≈ 0.161 µM) | 0.125 (≈ 0.335 µM) | 0.25 (≈ 0.669 µM) | > 32
COc1ccc(F)cc1C1=CCCN(C(=O)/C=C/c2cnc3c(c2)CCC(=O)N3)CC1 [Co. No. 27] | 0.1 (≈ 0.237 µM) | 0.33 | < 10 | < 10 | < 10 | 220 (≈ 522 µM) | 250 (≈ 593 µM) | 440 (≈ 1040 µM) | 590 (≈ 1400 µM) | 0.06 (≈ 0.142 µM) | 0.06 (≈ 0.142 µM) | 0.06 (≈ 0.142 µM) | 0.125 (≈ 0.297 µM) | 0.06 (≈ 0.142 µM) | > 8 | > 8
